EC50, IC50 and outcome data for 67 compounds are collected here from PubChem BioAssay AID179 (DTP/NCI, 2004).

pEC50, pIC50: −log10 of the molar value. Several values for one entry are separate records, joined by “and”; a condition that tells them apart may be missing. Identical values can stand only once. Activity calls are given as the source filed them.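 How the source made its calls: active means compounds giving half or more protection of infected cells from virus-caused growth loss, again on retest; inactive means the rest.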 Where a SMILES comes first, the peptide text is derived from it. Some results are limits rather than exact numbers.

The test system of the assay is CEM cells HIV-1 protection, formazan growth assay. Nature of the assay: NCI AIDS Antiviral Assay. The settings on record: for pIC50: measured here: growth of uninfected CEM cells. The procedure, abridged:
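Category rules: moderately active means at least 50% protection on retest, and confirmed active means 100% protection reproducibly. The underlying data came from a formazan growth assay in HIV-1-infected CEM cells.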

Consider `COc1ccc(C(=O)C2=NON3OC23C(=O)c2ccc(OC)cc2)cc1` (stereo not drawn), for which the pEC50 is under 4.42 and the pIC50 was 5.17.

Regarding `O=S(Cl)C(Cl)=C(Cl)Cl` (stereo not drawn), the pEC50 was under 3.70 and the pIC50 was 4.39.

On to `CC1(C)CC(/C=C2/OC(=O)c3ccccc32)=C(C(N)=O)C(=O)O1`, for which the pEC50 was under 4.08 and the pIC50 was under 4.08.

In the case of `COC1(OC)N=C(N)C2(C#N)/C(=N/N(C)C)CC(C)C12C#N` (stereo not drawn), the pEC50 is under 3.70 and the pIC50 is under 3.70.

`CN1COc2c(n(C)c(=O)[nH]c2=O)C1`: the pEC50 was under 3.70 and the pIC50 was 3.92.

Take `COc1ccc2c(c1)C(=O)C1(C2)[C@H](c2ccccc2)C2C(=O)c3cc(OC)ccc3C2[C@H]1c1ccccc1` (stereo partly drawn): the pEC50 is under 3.70 and the pIC50 was 3.86.

As for `CC(C)(C)OC(=O)NCCCCC(N)C(N)=O` (stereo not drawn), the pEC50 was under 3.70 and the pIC50 is under 3.70.

In the case of `CCOC(=O)C(=O)Nc1cccc(C)c1C`, the pEC50 was under 3.09 and the pIC50 was under 3.09.

In the case of `CC(C)C(=S)N(C)O`, the pEC50 was under 4.73 and the pIC50 was 6.52.

Regarding `CC(=O)CC[N+](C)(C)C`, the outcome was inactive.

On to `O=C(N/N=C\c1ccc([N+](=O)[O-])s1)c1ccncc1`, for which the pEC50 was under 3.70 and the pIC50 was 5.06.

For the compound `CC[C@]1(Cc2ccc(OC)c(OC)c2)[C@@H]2C[C@@H](C3OCCO3)ON2O[C@H](OC2CCCC2(c2ccccc2)c2ccccc2)[C@@H]1OC(C)=O` (stereo partly drawn), the pEC50 was under 3.70 and the pIC50 is 4.66.

Consider `C[C@H](NC(=O)c1ccccc1SC(=O)CCCC[n+]1ccccc1)C(N)=O`, for which the pEC50 was 6.03 and the pIC50 was under 4.00.

Turning to `CCOP(=O)(CP(=O)(OCC)OCC)OCC.[Cl][Sn]([Cl])([c]1ccccc1)[c]1ccccc1`, the pEC50 was under 4.94 and the pIC50 is 6.22.

Consider `COc1cc(Br)c(-c2coc3c(OC)c(OC)ccc3c2=O)cc1OC`, for which the pEC50 was under 4.30 and the pIC50 was under 4.30.

As for `COc1ccc(/C=C(/C#N)c2ccc(Cl)cc2)cc1`, the pEC50 is under 3.70 and the pIC50 was 5.40.

In the case of `COc1ccc(-c2c(C#N)c(N)n(C3OCC(O)C(O)C3O)c(=S)c2C#N)cc1` (stereo not drawn), the pEC50 is under 3.70 and the pIC50 was 3.93.

Consider `COc1ccc(O)c(/C=N/NC(=S)N2CCCCC2)c1`, for which the pEC50 was under 3.70 and the pIC50 is 5.09.

As to `COC(=O)[C@H](Cc1ccc(O)cc1)NC(=O)[C@H](Cc1ccc(O)cc1)NC(=O)OC(C)(C)C` (HELM PEPTIDE1{[CC(C)(C)OC(=O)[*:2]].Y.Y.[CO[*:1]]}$$$$V2.0), the pEC50 is under 3.70 and the pIC50 is 4.03.

In the case of `COc1ccc(/C=C/C(=O)c2sc(N)nc2C)cc1`, the pEC50 is under 3.04 and the pIC50 was 3.32.

As for `O=[N+]([O-])c1ccc(O)c(/C=N\NC(=S)Nc2ccc(F)cc2)c1`, the pEC50 is under 4.11 and the pIC50 was under 4.11.

Consider `COc1ccccc1C1C2=C(COC2=O)OC(C)(C)Oc2cc3c(cc21)OCO3` (stereo not drawn), for which the result was inactive.

As for `Clc1ccc(Cc2nc3ccccc3s2)c(Cl)c1`, the pEC50 is under 4.47 and the pIC50 was 4.58.

In the case of `CC1=C(C(=O)Nc2cccc(C(F)(F)F)c2)C(c2ccc(O)cc2)C(C(=O)Nc2cccc(C(F)(F)F)c2)=C(C)N1`, the pEC50 was under 4.49 and the pIC50 was under 4.49.

Turning to `Cc1ccc2c3c(nsc13)-c1ccccc1C2=O`, the pEC50 was under 4.27 and the pIC50 is under 4.27.

For `Cc1ccc(CC2(C(=O)O)Cc3ccc(C)cc3C2)cc1` (stereo not drawn), the pEC50 was under 3.70 and the pIC50 is 4.24.

On to `Cc1ccc(C2(c3ccccc3)OC3OC=CC32)cc1` (stereo not drawn), for which the pEC50 was under 3.70 and the pIC50 was 4.15.

With `COC1/C=C/OC2(C)Oc3c(C)c(O)c4c(O)c(c(/C=N/N5CCOCC5)c(O)c4c3C2=O)NC(=O)C(C)=C/C=C\C(C)C(O)C(C)C(O)C(C)C(O)C1C` (stereo not drawn), the pEC50 was under 3.90 and the pIC50 is 4.14.

On to `Cc1c(C(=O)CC(=O)C(=O)Nc2cccc(C(F)(F)F)c2)[n+](=O)c2ccccc2n1[O-]`, for which the pEC50 is under 4.39 and the pIC50 is 5.45.

For the compound `CCN(CC)c1ccc2cc(C(=O)Nc3ccccc3)c(=N)oc2c1`, the pEC50 is under 4.00 and the pIC50 is under 4.00.

With `Cc1cc(C)c(C(=O)/C(=C/c2ccccc2)c2ccccc2)c(C)c1`, the pEC50 is under 4.80 and the pIC50 is under 4.80.

Take `COC(CCC(C)C1OC23CC(OC(=O)CC(C(C)O)OC(=O)CC(O)(O2)C(C)CC3(C)C)C1C)c1cccc(O)c1` (stereo not drawn): the result was active.

Turning to `Cc1[nH]cc2c1C(c1ccccc1F)=NCC(=O)N2`, the pEC50 was under 3.64 and the pIC50 is under 3.64.

For the compound `COC1/C=C\C=C(/C)C(=O)NC2=CC(=O)C(N)=C(CC(C)CC(OC)C(O)C(C)C=C(C)C1OC(N)=O)C2=O` (stereo not drawn), the pEC50 was under 5.70 and the pIC50 is 7.18.

Turning to `COc1ccc(C=C(C(=O)c2ccccc2)C(=O)c2ccccc2)cc1`, the pEC50 is under 4.68 and the pIC50 is under 4.68.

As to `O=[N+]([O-])/C(C(Cl)=C(Cl)Cl)=C(/Cl)SCc1ccccc1`, the pEC50 was under 3.70 and the pIC50 was 4.96.

Take `CC/C(=C(\C#N)c1ccc(Cl)cc1)c1ccc(OCCN(CC)CC)cc1`: the pEC50 was under 4.00 and the pIC50 is 5.55.

For `CCN(CC)c1ccc(C(=O)c2ccccc2C(=O)O)c(O)c1`, the result was inactive.

As to `CCOC(=O)C1=C(NC(C)(C)C)OC/C1=N\NC(=O)Cc1ccccc1`, the pEC50 was under 4.14 and the pIC50 is under 4.14.

Consider `O=S(=O)(O)c1cc(N=Nc2cc(S(=O)(=O)O)c3ccccc3c2O)ccc1/C=C/c1ccc(N=Nc2cc(S(=O)(=O)O)c3ccccc3c2O)cc1S(=O)(=O)O`, for which the pEC50 is 4.47 and 4.91; the pIC50 is 3.72 and < 3.70.

In the case of `CCOC(=O)N/N=C(\Cc1ccc([N+](=O)[O-])cc1)OCC`, the pEC50 was under 3.70 and the pIC50 is under 3.70.

Take `Nc1nc2c(ncn2Cc2ccccc2CCO)c(=O)[nH]1`: the pEC50 is under 4.32 and the pIC50 was under 4.32.

Take `N#CC1C(=N)Cc2ccccc2-c2ccccc21` (stereo not drawn): the pEC50 is under 3.70 and the pIC50 is 5.81.

For `COc1cc(NCCN(CC(C)C)C(C)C(C)C)c2ncccc2c1` (stereo not drawn), the pEC50 is under 3.70 and the pIC50 is 4.43.

Turning to `CCCCCCCCCCCCCCCCCCOP(=O)(O)OCCC=C(c1cc(Cl)c(O)c(C(=O)O)c1)c1cc(Cl)c(O)c(C(=O)O)c1`, the pEC50 is under 3.77 and the pIC50 was 4.20.

With `COc1ccc(NC(=O)C2=CC(=O)c3ccc(O)cc3C2=O)c(OC)c1`, the pEC50 is 4.12 and the pIC50 is 3.15.

With `CCOC(=O)c1nnsc1NN=C(C)C`, the pEC50 was under 3.70 and the pIC50 was under 3.70.

In the case of `CN(C)c1nc(=NCc2cccnc2)ss1`, the pEC50 is under 3.70 and the pIC50 is 4.94.

As for `Cc1ccc(NC(=O)/C(Cc2nc3ccc([N+](=O)[O-])cc3[nH]c2=O)=N\NC(=O)C[n+]2ccccc2)c(C)c1`, the pEC50 was under 3.63 and the pIC50 was 3.77.

Turning to `Nc1cccc(S(=O)(=O)N(CC(=O)O)c2ccccc2)c1`, the outcome was inactive.

In the case of `ON(CCc1ccccn1)CCc1ccccn1`, the pEC50 was under 3.70 and the pIC50 is under 3.70.

On to `NC(CCCCNC(=O)C(Cc1ccccc1)NC(=O)OCc1ccccc1)C(=O)NC(CCCCNC(=O)C(Cc1ccccc1)NC(=O)OCc1ccccc1)C(=O)NC(CCCCNC(=O)C(Cc1ccccc1)NC(=O)OCc1ccccc1)C(=O)NC(CCCCNC(=O)C(Cc1ccccc1)NC(=O)OCc1ccccc1)C(=O)NC(CCCCNC(=O)C(Cc1ccccc1)NC(=O)OCc1ccccc1)C(=O)NC(CCCCNC(=O)C(Cc1ccccc1)NC(=O)OCc1ccccc1)C(=O)O` (stereo not drawn), for which the pEC50 is under 4.30 and the pIC50 was under 4.30.

As to `NC1=CNC(=O)C1`, the pEC50 was under 3.86 and the pIC50 is under 3.86.

In the case of `CCCCN(CC)C(=O)COc1cc2c(O)c3c(O)c(C)c4c(c13)C(=O)C(C)(O/C=C\C(OC)C(C)C(OC(C)=O)C(C)C(O)C(C)C(O)C(C)/C=C\C=C(\C)C(=O)N2)O4` (stereo not drawn), the outcome was inactive.

For the compound `CCN(CC)C(=S)SS(=O)(=O)c1ccc(Cl)cc1`, the pEC50 is under 3.70 and the pIC50 was 4.92.

Regarding `CCCCOC(=S)SSC(=S)OCCCC`, the pEC50 is under 4.25 and the pIC50 is 4.94.

In the case of `COc1ccc2nc(N/N=C/c3ccc(C)s3)cc(C)c2c1`, the pEC50 was under 3.70 and the pIC50 was 4.89.

Take `COc1ccc(/C=C/c2ccc3ccccc3[n+]2C)cc1OC`: the pEC50 is 7.20 and the pIC50 is 4.28.

On to `CC(C)CC(F)(C(N)=O)C(N)=O`, for which the pEC50 is under 3.70 and the pIC50 is under 3.70.

For `CC1=CC(C)(C)[C@H]2O[C@@]3(O)C[C@]4(C)[C@H]5C[C@@](C(C)C)(O[C@H]4c4ccoc4)O[C@H]4[C@]5(C3)O[C@@]1(O)[C@]24O`, the pEC50 is under 4.00 and the pIC50 is under 4.00.

With `c1ccc2c(c1)ccc1c2nc2c3ccccc3[nH]n12`, the pEC50 is 6.61 and the pIC50 is 4.97.

On to `C=C(C)[C@@H]1CC[C@]2(C)CC[C@]3(C)[C@H](CC[C@@H]4[C@@]5(C)CC[C@H](O)C(C)(C)[C@@H]5CC[C@]43C)[C@@H]12`, for which the pEC50 was under 4.00 and the pIC50 was 4.29.

Take `COc1cc2nncc(SCc3ccccc3)c2cc1OC`: the pEC50 is under 4.07 and the negative-log IC50 (pIC50) is under 4.07.

In the case of `CO/N=C1/c2sccc2[C@H](NC(=O)C(F)(F)F)[C@@H]1O`, the pEC50 is under 3.70 and the pIC50 is under 3.70.

On to `CC(=O)Nc1cc2cc(N=CN(C)C)ccc2oc1=O`, for which the pEC50 is under 3.58 and the pIC50 was 3.83.

In the case of `CC(/C=C/c1ccc(N(C)C)cc1)=N\NC(=S)NCC(C)C`, the pEC50 is under 3.70 and the pIC50 was 4.53.

Consider `CCc1c(Cc2cc(C)cc(C)c2)n(COCCSc2ccccc2)c(=O)[nH]c1=O`, for which the pEC50 is 6.31 and the pIC50 is 4.81.

For orientation: pEC50 means the EC50 on a negative log10 scale, so that one unit is a factor of ten. As a reminder, the pIC50 is −log10 of the IC50, conventionally taken in molar units. A low value points to a large IC50.
